Read-outs that look alike come from different tables or passages of the source. Where a SMILES comes first, the peptide text is derived from it. The star is where a group is joined. Cbz = O=C(OCc1ccccc1)*; CH2F = FC*
How the values were obtained:
Assay type in all cases: cell-based, human
[1] = system: cisplatin-resistant A549 cells (A549cis7.5, A549cis10); details: for Fold change of IC50 in resistant line vs. A549 parental line: A549cis7.5 (exposed up to 7.5 μM cisplatin), MTT, 72 hours
Text: (§1) The A549 cisplatin-, carboplatin- and oxaliplatin-cells were derived from the A549WT cell lines, by maintaining the cells in increasing concentrations of the relevant drug. […] This generated cisplatin-(A549cis1, A549cis2.5, A549cis5, A549cis7.5 and A549cis10), carboplatin-(A549car1, A549car2.5, A549car5, A549car10, A549car15 and A549car17.5) and oxaliplatin-(A549oxa2.5, A549oxa3, A549ox3.5, A549ox5 and A549oxa7.5) resistant A549 cell lines. The cells were exposed to each drug concentration for at least a 4-week period and allowed to recover in drug-free medium for a minimum of 2 weeks, before culture in a higher concentration of drug.
(§2) Cytotoxicity of each platinum drug in each cell line was determined by MTT (3-(4,5-dimethylthiazole-2-yl)-2,5-diphenyl tetrazolium bromide, Sigma) assay. Cells were seeded onto 96-well plates at a density of 2-3×10^3 cells per well and cultured for 24 hours. Then cells were incubated with relevant concentrations of carboplatin, cisplatin or oxaliplatin for 72 hours. After treatment, 30 μl of MTT (5 mg/ml) in PBS was incubated with cells in a 96-well plate for 4 h at 37° C. Subsequently, the medium containing MTT was removed, and 200 μl of DMSO was added to each well and shaken for 15 minutes. Spectrophotometric absorbance of each well was measured at 560 nm and 630 nm on a microplate reader (Bio-Rad, model 3550). GraphPad Prism 2.01 was used to calculate the IC50 of each platinum drug in different cell lines.
(§3) CA-074 Methyl ester (Sigma) was used to inhibit cathepsin B and caspase inhibitor I: (Z-VAD (OMe)-FMK, Calbiochem, UK) to inhibit caspases. Cathepsin L and K selective inhibitors (Cathepsin L inhibitor IV: Z-FF-FMK and Cathepsin K inhibitor I: 1,3-Bis (N-carbobenzoyloxy-L-leucyl) amino acetone, respectively (Calbiochem, UK)) and non-selective broad range cathepsin inhibitor (E-64d; (2S, 3S)-trans-epoxysuccinyl-L-leucylamido-3-methylbutane ethyl ester (Sigma, UK) were used to inhibit cysteine proteases.

[2] = system: oxaliplatin-resistant A549 cells (A549ox3, A549ox7.5); details: MTT, 72 hours
Text: as §1, §2, §3

[3] = system: carboplatin-resistant A549 cells (A549car15, A549car17.5); details: for Fold change of IC50 in resistant line vs. A549 parental line: A549car15 (exposed up to 15 μM carboplatin), MTT, 72 hours
Text: as §1, §2, §3

A549 wt cells = details: wild-type or resistant A549 NSCLC cells; data not shown
Experimental: The human NSCLC cell line A549 [from ATCC; CCL-185] was maintained in F12-K and RPMI 1640 (supplemented with 10% foetal bovine serum (FBS), 100 U/ml penicillin, and 100 μg/ml streptomycin at 37° C., 5% CO2) in an incubator.
as §2
CA-074 Methyl ester (Sigma) was used to inhibit cathepsin B and caspase inhibitor I: (Z-VAD (OMe)-FMK, Calbiochem, UK) to inhibit caspases. […]

[4] = A549ox7.5 (exposed up to 7.5 μM oxaliplatin)

Structure (SMILES)	Fold change of IC50 in resistant line vs. A549 parental line [1]	Fold change of IC50 in resistant line vs. A549 parental line [2, 4]	Level of resistance at higher drug concentration ([3]; A549 cells exposed to 17.5 μM carboplatin, compared with 15 μM)	Effect of caspase inhibition on sensitivity to platinum drugs (A549 wt cells)	Level of resistance at higher drug concentration ([1]; A549 cells exposed to 10 μM cisplatin, compared with 7.5 μM)	Fold change of IC50 in resistant line vs. A549 parental line [3]	Fold change of IC50 in resistant line vs. A549 parental line ([2]; A549 cells exposed up to 3 μM oxaliplatin)
N.N.O=C([O-])C1(C(=O)[O-])CCC1.[Pt+2] [carboplatin]	3.4 fold	1.5 fold	remained unchanged				
COC(=O)C[C@H](NC(=O)[C@H](C)NC(=O)[C@@H](NC(=O)OCc1ccccc1)C(C)C)C(=O)CF [caspase inhibitor I, Z-VAD (OMe)-FMK] (Cbz-Val-Ala-Asp(OMe)-CH2F)				did not alter			
N.N.[Cl][Pt][Cl] [cisplatin]		1.8 fold			remained unchanged	3.02 fold	
O=C1[O][Pt]2([NH][C@@H]3CCCC[C@H]3[NH]2)[O]C1=O [oxaliplatin]	0.54 fold	5.3 fold				0.47 fold	3 fold

Reference: patent US20090123925A1, “CANCER THERAPY PROGNOSIS AND TARGET” (priority 2005, published 2009)
